Data on one compound can be found in paper PMC8599359 (Molecular Neurobiology, 2021).

Data set [1] has as its system infants born to women receiving DTG at conception. The following applies: cited from earlier work.
The test system of a further data set is MMP-2. As to the kind of experiment: MMP expression in embryo brain (Western blot). It counts as in vivo, mouse. The following applies: GD 16.5, DTG vs control. Here is the method:
(§1) At GD 16.5, embryo whole brain tissues were isolated and homogenized in lysis buffer. Whole brain tissue homogenates were analyzed for expression of MMP-2, 9, and 14 using Western blot assay. Six pups were randomly selected from 6 different dams for both DTG- and vehicle-treated groups. Tissue lysates were centrifuged at 16,000 × g at 4 °C for 20 min and supernatants were collected. Total protein levels in each sample were quantitated using Pierce™ BCA Protein Assay Kit (Thermo Fisher Scientific). Fifteen micrograms of protein for each sample was ran on 10% SDS–polyacrylamide gel. Proteins were transferred to activated PVDF membrane. Membranes were blocked with 5% non-fat milk (BIO-RAD) for 1 h and incubated with individual primary antibody overnight at 4 °C on a shaker. The primary antibodies used were rabbit monoclonal anti-MMP-2 (ab181286, abcam, Cambridge, MA), rabbit polyclonal anti-MMP-9 (ab38898, abcam), rabbit monoclonal anti-MMP-14 (ab51074, abcam), rabbit monoclonal GAPDH (Cell Signaling Technology, Inc., Danvers, MA), and mouse monoclonal β-actin (Santa Cruz Biotechnology, Dallas, TX). All the primary antibodies were used at 1:2000 dilution. After overnight incubation with primary antibody, the membranes were washed with Tris-buffered saline with 0.1% Tween® 20 detergent (TBST) three times (5 min each wash). Membranes were then incubated with secondary antibody for 1 h at room temperature. The secondary antibodies used were goat anti-rabbit IgG H&L (HRP) (ab205718, abcam) and goat anti-mouse IgG H&L (HRP) (ab205719, abcam). For secondary antibodies, 1:10,000 dilutions were used. Blots were developed using SuperSignal™ West Femto Maximum Sensitivity Substrate (Thermo Fisher Scientific) and iBright 750 Imaging System. Band intensity was analyzed using ImageJ software.
For orientation: Immunoblotting shows a protein as a band on a membrane.

The next data set concerns MMP-9. As to the kind of experiment: MMP expression in embryo brain (Western blot). It counts as in vivo, mouse. The following applies: GD 16.5, DTG vs control. The protocol:
as §1

The next data set relates to MMP-14. The data set is described as follows: MMP expression in embryo brain (Western blot). It counts as in vivo, mouse. To be noted: GD 16.5, DTG vs control. Here is the method:
as §1

The target of the next data set is HIV-1 integrase. The following applies: read-out: IC50 as INSTI; cited from earlier work.
The next data set deals with C3H/HeJ mice pups. As to the kind of experiment: Pregnancy and postnatal outcomes after in utero exposure. It counts as in vivo, mouse. An excerpt: For all animal experiments, C3H/HeJ (10–12 weeks of age, male and female) were purchased from the Jackson Laboratory (Bar Harbor, ME), and were housed in microisolator cages containing autoclaved corncob bedding, and maintained on a 12‐h light‐dark cycle in climate‐controlled laboratory animal facilities approved by the University of Nebraska Medical Center Institutional Animal Care and Use Committee (IACUC). Mice were given free access to irradiated rodent feed (TD. 180,911, Envigo Teklad diet, Madison, WI) and sterile water. Animals were acclimated to the environment for approximately 7–14 days to determine that they were healthy based on observed behavior and weight gain. A female was placed with a male overnight for the purpose of timed matings. The following morning males were removed from the cages and positive vaginal plugs were identified. […] The time of conception was considered to be midnight on the evening of the mating. Treatment of plugged females was started at the morning of the day of plug detection (gestation day (GD) 0.5).
Mice pups at this stage of development (PND 28) are equivalent to humans of 2 years of age. […] Pregnant dams were randomly assigned to DTG or vehicle group. […] Survival rate of pups was 100% between PND 4 and 21 in both groups. Further body weights of pups were measured during preweaning duration. […] Furthermore, between age PND 28 and 34, live animals were evaluated for biochemical changes in the brain by magnetic resonance imaging (MRI) (Fig. 5D–F). All the tests were performed around 6 days post weaning to avoid confounding effect of stress related to separation from mother. Microstructural and metabolite measurements were conducted in live pups using bioimaging methods, diffusion tensor imaging (DTI), and magnetic resonance spectroscopy (^1H MRS), respectively (Fig. 5D–F). First, pups were scanned using DTI to determine microstructural changes in six different brain regions, hippocampus (HI), cortex (CT), striatum (ST), thalamus (TH), hypothalamus (HY), and cerebellum (CE). […] As FA represents anisotropic movement of water molecules along the axons, reduction in FA values indicated axonal and/or myelin damage in developing brain of adolescent pups in the DTG-treated group. […] This allowed evaluation of sex as a biological variant (Supplementary Fig. 4). […] Further, the same pups were scanned using ^1H MRS to measure N-acetylaspartate (NAA), total choline (tCho), and total creatine (tCre) in hippocampus (HI) only (Fig. 5F). NAA is a highly concentrated metabolite in the CNS and is a neuron-specific metabolite that acts as a non-invasive ^1H MRS marker for neuronal integrity, health, and cell number. […] Similar to DTI, sex differences were evaluated in the ^1H MRS study (Supplementary Fig. 5).

Setting [2] is: dams 50 mg/kg/day oral through entire gestation.

As for `C[C@@H]1CCO[C@H]2Cn3cc(C(=O)NCc4ccc(F)cc4F)c(=O)c(O)c3C(=O)N12` [DTG, Dolutegravir], the “overall clinical prevalence of NTDs among infants born to women receiving DTG at conception” value in data set [1] is ~ 0.3%. Further, the “risk of NTDs relative to other ARTs at conception” value in data set [1] (extended surveillance in Botswana) is recorded as 2–3 times. Moreover, in the data set with MMP-2, the “protein levels of MMP-2 in embryo brain tissue” value is listed as “No significant differences”. For the same compound, the “protein levels of MMP-9 in embryo brain tissue” value with MMP-9 was “No significant differences”. The “protein levels of MMP-14 in embryo brain tissue” value in the data set with MMP-14 is “No significant differences”. The IC50 – broadly, the concentration that inhibits the measured activity by half – at HIV-1 integrase was 2.7 nM. Further, in the data set with C3H/HeJ mice pups (PND 12, in utero exposure), the “Average body weight of pups” value was determined as 5.1 ± 0.4 g. Besides, the “Average body weight of pups” value in the data set with C3H/HeJ mice pups (PND 21, in utero exposure) worked out at 7.5 ± 0.4 g. Besides, in the data set on C3H/HeJ mice pups (setting [2]), the “No. of female pups delivered per litter” value worked out at 1.2, the “No. of male pups delivered per litter” value amounted to 2.2, the “No. of pups delivered per litter (average litter size)” value stood at 3.5 and the “male to female ratio per litter” value is on record as 2.0. In addition, in the data set with C3H/HeJ mice pups (in utero exposure), the “% pup survival (PND 4 to PND 21)” value was determined as 100%, the “% pup survival (birth to PND 4)” value came to 92.8% and the “structural malformations or variations in newborn pups” value is given as “no structural malformations or variations”.
